Source: patent US5620676A, “Biologically active ATP analogs” (priority 1995, dated 1997)
Several values for one entry are separate records, joined by “and”; a condition that tells them apart may be missing. Identical values can stand only once. Entries after “also recorded” stand apart in the source; their conditions may differ. Like-named read-outs stand apart in the source and are kept apart here.

Tests used:
[1] = molecular target: T1, P2Y receptor (turkey erythrocyte membranes) (Meleagris gallopavo, UniProt P49652); assay: Stimulation of phospholipase C (inositol phosphate formation) in turkey erythrocyte membranes; assay type: biochemical
T1 construct: from tissue; host or cells: washed turkey erythrocytes, ghosts prepared by hypotonic lysis
T1 sequence (P49652 whole entry): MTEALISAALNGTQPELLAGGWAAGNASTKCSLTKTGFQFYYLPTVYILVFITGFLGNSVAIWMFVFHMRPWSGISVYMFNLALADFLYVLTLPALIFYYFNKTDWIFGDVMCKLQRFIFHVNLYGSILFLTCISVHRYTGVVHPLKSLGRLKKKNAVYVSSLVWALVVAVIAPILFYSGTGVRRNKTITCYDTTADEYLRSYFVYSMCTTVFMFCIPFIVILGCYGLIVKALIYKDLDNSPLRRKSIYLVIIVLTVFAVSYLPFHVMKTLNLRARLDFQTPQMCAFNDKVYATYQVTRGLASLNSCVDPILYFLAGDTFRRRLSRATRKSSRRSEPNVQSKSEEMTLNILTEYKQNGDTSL
Procedure: Phospholipase C activity: Stimulation of inositol phosphate formation by compounds of the present invention was measured in turkey erythrocyte membranes as described by Harden et al., supra and Boyer et al., supra. The K0.5 values were averaged from 3-8 independently determined dose-response curves for each compound. Briefly, one ml of washed turkey erythrocytes was incubated in inositol-free medium (DMEM; Gibco) with 0.5-1 mCi of 2-[^3 H]myoinositol (20 Ci/mmol; American Radiolabeled Chemicals Inc., St. Louis, Mo.)for 18-24 h in a humidified atmosphere of 95% air 5% CO2 at 37° C. Erythrocyte ghosts were prepared by rapid lysis in hypotonic buffer (5 mM sodium phosphate, pH 7.4, 5 mM MgCl2, 1 mM EGTA) as described by Boyer et al., supra. Phospholipase C activity was measured in 25 μl of [^3 H]inositol-labeled ghosts (≈175 μg of protein, 200-500,000 cpm/assay) in a medium containing 424 μM CaC12, 0.91 mM MgSO4, 2 mM EGTA, 115 mM KCl, 5 mM KH2 PO4, and 10 mM Hepes, pH 7.0. Assay (100 μl or 200 μl final volume) contained 1 μM GTPγS and the indicated concentrations of nucleotide analogs. Ghosts were incubated at 30° C. for 5 min, and total [^3 H]inositol phosphates were quantitated after purification by anion exchange chromatography according to Harden et al. (supra) and Boyer et al. (supra).
(§1) Phospholipase C activity and muscle relaxation/contraction effects were assessed using the methods recited in Example 3. In FIGS. 10-12, which present the result of assays of phospholipase C activity in turkey erythrocyte membranes, the x-axis is marked in units of the log of the molar concentration of the putative P2Y receptor agonist tested and the y-axis is marked in units of the percentage of maximum production of [^3 H]-inositol phosphate generated. In FIG. 13, the x-axis is marked in units of the negative log of the molar concentration of applied putative P2Y receptor agonists and the y-axis is marked in units of the percentage relaxation of the 50 nM carbachol-induced contraction of guinea pig taenia coli. In FIG. 14, the x-axis is also marked in units of the negative log of the molar concentration of applied putative P2Y receptor agonists and the y-axis is marked in units of the percentage relaxation of the 1 μM noradrenalin-induced contraction of rabbit aorta endothelium. In FIGS. 15-16, the x-axis is marked in units of the negative log of the molar concentration of applied putative p^2X receptor agonists and the y-axis is marked in units of the percentage contraction relative to a standard dose of KCl (i.e., 60 mM), as assessed in guinea pig isolated urinary bladder detrussor muscle (FIG. 15) and guinea pig isolated vas deferens (FIG. 16).

[2] = molecular target: T2, P2Y receptor (taenia coli) (Cavia porcellus, UniProt P59902); assay: Relaxation of carbachol-contracted guinea pig taenia coli; conditions: for activity/potency in words, taenia coli: guinea pig taenia coli
T2 construct: Relaxant responses mediated via P2Y receptors were examined in guinea pig taenia coli; from tissue; host or cells: guinea pig taenia coli (carbachol-contracted)
T2 sequence (P59902 whole entry): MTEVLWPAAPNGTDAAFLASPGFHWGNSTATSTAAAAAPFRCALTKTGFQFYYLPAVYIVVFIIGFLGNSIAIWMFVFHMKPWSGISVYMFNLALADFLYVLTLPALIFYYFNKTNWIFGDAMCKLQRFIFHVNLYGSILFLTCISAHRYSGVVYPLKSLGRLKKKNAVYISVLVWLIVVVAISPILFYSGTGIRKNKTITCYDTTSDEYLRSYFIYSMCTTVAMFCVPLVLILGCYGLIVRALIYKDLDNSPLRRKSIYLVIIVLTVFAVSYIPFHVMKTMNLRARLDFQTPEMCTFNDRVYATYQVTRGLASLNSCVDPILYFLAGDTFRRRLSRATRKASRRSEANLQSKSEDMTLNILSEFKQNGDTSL
Description: (§2) Muscular relaxation/contraction: Relaxant responses mediated via P2Y receptors were examined in guinea pig taenia coli, rabbit aorta, and rabbit mesenteric artery, as described by Hoyle et al. (Br. J. Pharmacol., 107, 367-374 (1992a)), Burnstock et al., (Br. J. Pharmacol., 90, 383-391 (1987a)), and Rubino et al., (Eur. J. Pharmacol., 212, 237-240 (1992)). Contractile responses mediated via P2X receptors were examined in the guinea pig urinary bladder and vas deferens, and rabbit saphenous artery, also using standard methods (see Hoyle et al., supra., 1992; Hoyle et al., Br. J. Pharmacol., 99, 617-621 (1990); and Burnstock et al., Br. J. Pharmacol., 90, 111-120 (1987b)).
Muscular relaxation assays were performed as recited in Example 3. […] All curves are the mean of two determinations except for 5'-ATP (n=38), 2-hexylthio-ATP (n=4), 2-(5-hexenyl)thio-ATP (n=3), and 2-(2-4-nitrophenylethyl)thio-AMP (n=5). […] The pD2 value for 2-methylthio-ATP is 8.0±0.15, as reported by Hoyle et al., in Receptor Data for Biological Experiments, (H. N. Doods and J. C. A. Van Meel, eds., 1992b) at pp. 54-61.
as §1

[3] = system: P2Y receptor (aorta endothelium); assay: Relaxation of noradrenalin-contracted rabbit aorta; conditions: for relaxation pD2, aorta: rabbit aorta, log molar units
[4] = molecular target: P2Y receptor (mesenteric artery); assay: Relaxation of rabbit mesenteric artery; conditions: for relaxation pD2, mes. artery: log molar units
[5] = molecular target: T3, P2X receptor (saphenous artery) (Oryctolagus cuniculus, UniProt G1U3D6); assay: Contraction of rabbit saphenous artery; conditions: rabbit saphenous artery
T3 construct: and rabbit saphenous artery; from tissue; host or cells: rabbit saphenous artery
T3 sequence (G1U3D6 1-399): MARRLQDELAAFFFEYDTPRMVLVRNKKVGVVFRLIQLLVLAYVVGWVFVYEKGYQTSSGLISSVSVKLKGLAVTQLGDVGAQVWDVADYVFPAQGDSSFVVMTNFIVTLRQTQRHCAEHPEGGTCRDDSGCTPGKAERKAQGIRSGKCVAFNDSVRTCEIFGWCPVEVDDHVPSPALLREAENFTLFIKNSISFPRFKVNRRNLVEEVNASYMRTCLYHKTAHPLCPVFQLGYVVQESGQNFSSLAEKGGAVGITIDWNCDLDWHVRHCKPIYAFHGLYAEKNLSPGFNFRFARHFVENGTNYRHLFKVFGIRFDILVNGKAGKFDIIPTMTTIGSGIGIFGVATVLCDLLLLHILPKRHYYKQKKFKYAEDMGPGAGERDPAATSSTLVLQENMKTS
Description: as §2
^c For the saphenous artery, the percentages in brackets are response
at 10 μM relative to the contraction produced by 1 μM α,MeATP
ATP in this assay is very weak (EC50 =
1.78 mM). The highest concentrations of the analogues tested were 3-30

[6] = molecular target: T4, adenylyl cyclase linked P2Y receptor (C6 rat glioma cells) (Rattus norvegicus, UniProt Q9EPX4); assay: Inhibition of adenylyl cyclase in C6 rat glioma cells; assay type: cell-based; conditions: for IC50: C6 rat glioma cells, 10 μM isoproterenol, read-out: K0.5 values (in nM) for inhibition of adenylyl cyclase in C6 cells; for selectivity for the adenylyl cyclase linked receptor, in words: versus phospholipase C linked receptor; for selectivity for the adenylyl cyclase linked (C6 cell) receptor: versus phospholipase C linked turkey erythrocyte receptor
T4 construct: endogenous in cells; host or cells: C6 rat glioma cells
T4 sequence (Q9EPX4 whole entry): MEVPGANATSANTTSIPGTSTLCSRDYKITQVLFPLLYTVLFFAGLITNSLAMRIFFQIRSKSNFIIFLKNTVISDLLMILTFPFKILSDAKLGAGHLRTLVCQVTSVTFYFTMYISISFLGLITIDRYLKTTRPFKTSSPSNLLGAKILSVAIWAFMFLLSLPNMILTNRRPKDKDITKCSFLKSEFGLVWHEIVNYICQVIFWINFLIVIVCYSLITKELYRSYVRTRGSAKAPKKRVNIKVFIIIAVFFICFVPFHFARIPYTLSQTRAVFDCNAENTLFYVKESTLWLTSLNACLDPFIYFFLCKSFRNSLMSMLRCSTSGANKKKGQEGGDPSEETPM
Procedure: This example illustrates the inhibition of adenylyl cyclase activity in C6 rat glioma cells, as a function of the presence of certain ATP analogs in the medium in which the C6 cells were cultured.
Cells were labelled by incubation for 2 hours in the presence of 1 to 2 mCi of tritiated adenine/ml in the medium. Cells were washed twice with HEPES (20 mM, pH 7.5)-buffered Eagle's medium and then preincubated for 10 minutes at 37° C. with fresh medium containing 200 μM 3-isobutyl-1-methylxanthine. Agonist incubations were initiated by the simultaneous addition of 10 μM isoproterenol and various concentrations of nucleotides. The reactions were stopped after 10 minutes of aspiration of the nucleotide-containing medium and addition of 1 ml of ice-cold 5% trichloroacetic acid.

[7] = molecular target: T5, P2X receptor (vas deferens) (Cavia porcellus, UniProt A0A286XVA9); assay: Contraction of guinea pig isolated vas deferens
T5 sequence (A0A286XVA9 1-399): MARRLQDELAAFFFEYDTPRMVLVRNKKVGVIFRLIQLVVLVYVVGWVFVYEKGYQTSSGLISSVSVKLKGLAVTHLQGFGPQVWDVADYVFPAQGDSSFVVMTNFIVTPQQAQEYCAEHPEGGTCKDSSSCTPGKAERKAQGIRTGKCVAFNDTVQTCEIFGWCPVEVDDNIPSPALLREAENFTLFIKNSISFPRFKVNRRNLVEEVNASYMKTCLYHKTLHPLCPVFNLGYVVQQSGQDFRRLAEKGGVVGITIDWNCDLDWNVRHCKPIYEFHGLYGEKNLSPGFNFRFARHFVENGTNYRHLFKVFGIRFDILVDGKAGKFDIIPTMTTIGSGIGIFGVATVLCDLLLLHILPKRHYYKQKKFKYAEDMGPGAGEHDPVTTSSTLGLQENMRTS

[8] = molecular target: T6, P2X receptor (urinary bladder) (Cavia porcellus, UniProt A0A286XVA9); assay: Contraction of guinea pig isolated urinary bladder detrussor muscle; conditions: guinea pig urinary bladder
T6 construct: guinea pig isolated urinary bladder detrussor muscle; from tissue; host or cells: guinea pig isolated urinary bladder detrusor muscle

[9] = turkey erythrocyte membranes, mean ± S.E.M. for at least 2 determinations, read-out: phosphatidyl inositol metabolism (K0.5, nM) erythrocyte
[10] = turkey erythrocyte membranes, read-out: K0.5

Structure (SMILES) | activity/potency in words, turkey erythrocyte ([1]; turkey erythrocyte membranes) | EC50 [1, 9] [nM] | EC50 [1, 10] | EC50 [2] [nM] | relaxation pD2, aorta [3] | relaxation pD2, mes. artery [4] | activation at 10 µM ([5]; 10 μM, read-out: response at 10 μM relative to the contraction produced by 1 μM α,MeATP, saph. artery) [%] | IC50 [6] [nM] | selectivity for the adenylyl cyclase linked receptor, in words [6] | fold less potent than the corresponding triphosphate, turkey erythrocyte ([1]; relative to corresponding triphosphate) | activity/potency in words, taenia coli [2] | selectivity for the adenylyl cyclase linked (C6 cell) receptor [6] | activity/potency/selectivity in words, aorta ([3]; rabbit aorta endothelial P2Y receptor) | activity/potency in words, mesenteric artery [4] | activity/potency in words, saphenous artery [5] | activity/potency in words, vas deferens [7] | activity/potency in words, bladder [8] | EC50 ([1]; K0.5, turkey erythrocyte membranes, read from graph) [nM] | fold less potent than ATP, turkey erythrocyte ([1]; relative to ATP)
Nc1nc(SCCc2ccc([N+](=O)[O-])cc2)nc2c1ncn2[C@@H]1O[C@H](COP(=O)(O)OP(=O)(O)OP(=O)(O)O)[C@@H](O)[C@H]1O [2-(2-p-Nitrophenylethyl)-thio-ATP, 2[2-(p-Nitrophen)ethylthio]adenosine 5'-triphosphate] | at least two orders of magnitude more potent | 12 ± 4 | 5 to 30 nM | 31.6 | 6.2 | 7.0 | 2.6 | 1 ± 0.4 | only moderate selectivity for C6 cell receptors | – | – | – | – | – | – | – | – | – | –
C=CCCCCSc1nc(N)c2ncn([C@@H]3O[C@H](COP(=O)(O)OP(=O)(O)O)[C@@H](O)[C@H]3O)c2n1 [2-(5-Hexenyl)thio-ADP, 2-(5-hexenylthio)-adenosine 5'-diphosphate] | – | 6.8 ± 3 | 4 nM | 3.63 | – | – | – | 0.07 ± 0.02 | approximately the same degree of selectivity | – | – | – | – | – | – | – | – | – | –
C=CCCCCSc1nc(N)c2ncn([C@@H]3O[C@H](COP(=O)(O)O)[C@@H](O)[C@H]3O)c2n1 [2-(5-Hexenyl)thio-AMP, 2-(5-hexenylthio)adenosine 5'-monophosphate] | – | 328 ± 43 | – | 1000 | 7.0 | 6.3 | – | 2 ± 0.18 | – | 33 -fold | – | – | – | – | – | – | – | – | –
C=CCCCCSc1nc(N)c2ncn([C@@H]3O[C@H](COP(=O)(O)OP(=O)(O)OP(=O)(O)O)[C@@H](O)[C@H]3O)c2n1 [2-(S-Hexenyl)thio-ATP, 2-(5-hexenylthio)adenosine 5'-triphosphate] | at least two orders of magnitude more potent | 10 ± 4 | 5 to 30 nM and 10 nM | 12.6 | – | 7.0 | – | 0.12 ± 0.06 | – | – | significantly more potent than ATP itself, at least by one order of magnitude | – | – | – | – | – | – | – | –
CCCCCCSc1nc(N)c2ncn([C@@H]3O[C@H](COP(=O)(O)OP(=O)(O)OP(=O)(O)O)[C@@H](O)[C@H]3O)c2n1 [2-Hexylthio-ATP, 2-hexylthio-ATP] | at least two orders of magnitude more potent | 5 ± 1 | 5 to 30 nM | 31.6 | 6.7 | 6.7 | – | 0.03 ± 0.005 | – | – | significantly more potent than ATP itself, at least by one order of magnitude | 170 -fold | – | – | – | – | – | – | –
O=c1[nH]c(=O)n([C@@H]2O[C@H](COP(=O)(O)OP(=O)(O)OP(=O)(O)O)[C@@H](O)[C@H]2O)cc1F [5-F-UTP, 5-Fluorouridine 5'-triphosphate] | only a weak agonist | > 100000 | – | – | 6.0 | – | – | – | – | – | only a weak agonist | – | more potent than ATP | inactive | inactive | inactive; also recorded: without effect in the vas deferens | more potent than ATP; also recorded: as potent as or more potent than ATP in the bladder | – | –
Nc1ncnc2c1ncn2[C@@H]1O[C@H](COP(=O)(O)OP(=O)(O)O)[C@@H](O)[C@H]1O [ADP, adenosine 5'-diphosphate, reference compound] | – | 8000 ± 2000 | – | – | 5.2 | 5.2 | – | – | – | – | equipotent to ATP | 120 -fold | – | – | – | less potent than ATP | equipotent with ATP | 3160 | 3 -fold
